The target of one assay is T1, succinate dehydrogenase (Sus scrofa, UniProt A5GZW8+D0VWV4+Q007T0).
T1 construct: isolated from porcine hearts; from tissue; host or cells: porcine heart
T1 sequence (Q0QF01 43-664 partner): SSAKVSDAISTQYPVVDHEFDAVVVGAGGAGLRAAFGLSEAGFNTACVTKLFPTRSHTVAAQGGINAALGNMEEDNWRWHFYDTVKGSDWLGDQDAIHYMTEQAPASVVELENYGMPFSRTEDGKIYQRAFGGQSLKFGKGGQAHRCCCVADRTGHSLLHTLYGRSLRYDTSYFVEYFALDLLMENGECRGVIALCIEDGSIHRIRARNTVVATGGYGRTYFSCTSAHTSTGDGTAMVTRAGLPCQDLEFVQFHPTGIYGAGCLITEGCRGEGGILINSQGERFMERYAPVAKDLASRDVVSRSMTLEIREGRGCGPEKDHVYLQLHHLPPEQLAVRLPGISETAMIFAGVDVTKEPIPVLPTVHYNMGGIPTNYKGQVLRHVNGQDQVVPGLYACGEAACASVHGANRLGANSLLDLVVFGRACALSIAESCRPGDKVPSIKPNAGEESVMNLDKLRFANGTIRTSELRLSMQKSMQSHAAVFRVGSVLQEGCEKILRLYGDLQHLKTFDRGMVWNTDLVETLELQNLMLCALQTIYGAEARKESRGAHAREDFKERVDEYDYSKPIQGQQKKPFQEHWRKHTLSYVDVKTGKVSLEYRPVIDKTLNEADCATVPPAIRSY
T1 sequence (Q007T0 29-280): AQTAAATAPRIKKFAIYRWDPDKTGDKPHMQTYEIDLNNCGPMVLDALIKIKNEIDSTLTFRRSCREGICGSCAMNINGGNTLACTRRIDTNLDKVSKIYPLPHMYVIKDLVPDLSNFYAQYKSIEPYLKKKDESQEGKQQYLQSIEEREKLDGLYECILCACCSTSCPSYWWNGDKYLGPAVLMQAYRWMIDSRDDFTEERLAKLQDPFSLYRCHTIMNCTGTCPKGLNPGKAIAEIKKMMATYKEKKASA
T1 sequence (D0VWV4 30-169): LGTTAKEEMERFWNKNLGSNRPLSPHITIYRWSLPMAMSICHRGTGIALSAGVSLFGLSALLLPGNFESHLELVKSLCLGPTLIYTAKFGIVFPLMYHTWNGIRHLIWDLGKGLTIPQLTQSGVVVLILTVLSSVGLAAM
T1 sequence (A5GZW8 57-159 limits assumed): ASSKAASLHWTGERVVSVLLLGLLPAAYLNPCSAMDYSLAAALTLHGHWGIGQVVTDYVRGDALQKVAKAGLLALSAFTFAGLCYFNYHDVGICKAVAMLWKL
Description: Enzyme activity assay, succinate dehydrogenase (DCIP reduction). The settings on record: read-out: Inhibitors (10 μM, SQR). Format: biochemical, porcine. The protocol: The inhibitory activities of control agents and target compounds on succinate dehydrogenase are determined.
The enzyme used in this test example is succinate dehydrogenase, which is isolated from porcine hearts.
The test method comprises the following steps: The total volume of the system is 1.8 ml, and the system contained 100 mM Na2HPO4—NaH2PO4 buffer (pH=7.4), 0.3 mM EDTA, 20 mM sodium succinate, 53 μM DCIP (2,6-dichloroindophenol sodium), and 2 nM succinate dehydrogenase. Thermostatic waterbath at 23° C. and magnetic stirring at 600 rpm. The decrease in the light absorption of the substrate DCIP is monitored at a wavelength of 600 nm and experimental points in a linear range are collected. Control substrate consumption not more than 5% of the experimental points. The molar extinction coefficient of DCIP is 21 mM^−1 cm^−1. And calculating the reduction yield of the DCIP in the reaction time, fitting a linear slope, and deducting the baseline slope to obtain the initial reaction speed.
As for `Cn1nc(C(F)F)c(C(=O)N(CC(=C(Cl)Cl)c2ccc(Br)cc2Br)C2CC2)c1F` [Compound 134], the inhibition at 10 µM was greater than 90%.

Take `C=C(CN(C(=O)c1c(C(F)F)nn(C)c1F)C1CC1)c1ccc(F)cc1F` [Compound 23]: the inhibition at 10 µM was greater than 90%.

For the compound `CCS(=O)(=O)c1cccc(C(=C(Cl)Cl)C(C)N(C(=O)c2c(C(F)F)nn(C)c2F)C2CC2)c1` (stereo not drawn) [Compound 217], the inhibition at 10 µM was greater than 90%.

With `C=C(c1ccc(Cl)cc1Cl)C(C)N(C(=O)c1c(C(F)F)nn(C)c1F)C1CC1` (stereo not drawn) [Compound 67], the inhibition at 10 µM was greater than 90%.

On to `C=C(c1cccc(S(C)(=O)=O)c1)C(C)N(C(=O)c1c(C(F)F)nn(C)c1F)C1CC1` (stereo not drawn) [Compound 104], for which the inhibition at 10 µM is greater than 90%.

On to `C=C(c1cccc(S(=O)(=O)CC)c1)C(C)N(C(=O)c1c(C(F)F)nn(C)c1F)C1CC1` (stereo not drawn) [Compound 108], for which the inhibition at 10 µM is greater than 90%.

As for `C=C(c1cc(C)ccc1C(C)C)C(C)N(C(=O)c1c(C(F)F)nn(C)c1F)C1CC1` (stereo not drawn) [Compound 93], the inhibition at 10 µM is greater than 90%.

In the case of `C=C(CN(C(=O)c1c(C(F)F)nn(C)c1F)C1CC1)c1ccccc1Br` [Compound 3], the inhibition at 10 µM was greater than 90%.

With `C=C(c1cccc(F)c1)C(C)N(C(=O)c1c(C(F)F)nn(C)c1F)C1CC1` (stereo not drawn) [Compound 56], the inhibition at 10 µM was greater than 90%.

For the compound `C=C(c1ccccc1S(C)(=O)=O)C(C)N(C(=O)c1c(C(F)F)nn(C)c1F)C1CC1` (stereo not drawn) [Compound 105], the inhibition at 10 µM was greater than 90%.

`C=C(c1ccc(Cl)cc1)C(C)N(C(=O)c1c(C(F)F)nn(C)c1F)C1CC1` (stereo not drawn) [Compound 59]: the inhibition at 10 µM was greater than 90%.

Regarding `Cn1nc(C(F)F)c(C(=O)N(CC(=C(Cl)Cl)c2cc(Cl)ccc2F)C2CC2)c1F` [Compound 155], the inhibition at 10 µM is greater than 90%.

Regarding `Cn1nc(C(F)F)c(C(=O)N(CC(=C(Cl)Cl)c2ccc(F)cc2F)C2CC2)c1F` [Compound 126], the inhibition at 10 µM is greater than 90%.

Turning to `CC(C(=C(Cl)Cl)c1ccccc1Br)N(C(=O)c1c(C(F)F)nn(C)c1F)C1CC1` (stereo not drawn) [Compound 185], the inhibition at 10 µM was greater than 90%.

Take `CC(C(=C(Cl)Cl)c1c(F)cc(F)cc1F)N(C(=O)c1c(C(F)F)nn(C)c1F)C1CC1` (stereo not drawn) [Compound 182]: the inhibition at 10 µM was greater than 90%.

Take `CC(C(=C(Cl)Cl)c1ccc(C(F)(F)F)cc1Cl)N(C(=O)c1c(C(F)F)nn(C)c1F)C1CC1` (stereo not drawn) [Compound 211]: the inhibition at 10 µM is greater than 90%.

As for `C=C(CN(C(=O)c1c(C(F)F)nn(C)c1F)C1CC1)c1ccccc1F` [Compound 20], the inhibition at 10 µM is greater than 90%.

Another assay deals with Erysiphe graminis. Description: Erysiphe graminis potting method. Format: in vivo. The settings on record: Blumeria graminis; 100 mg/L; read-out: Erysiphe graminis control rating. The procedure: The fungicidal activity of the control agents and target compounds are determined. The test and investigation method refers to SOP-SC-1116 Erysiphe graminis potting method in disinfectant rolls written by KANGZHUO and GUBAOGEN in “Standard operation specification for testing biological activity of pesticides”.
As for `Cn1nc(C(F)F)c(C(=O)N(CC(=C(Cl)Cl)c2ccc(Br)cc2Br)C2CC2)c1F` [Compound 134], the pest or weed control at 100 µg/mL fell in the range of 80 to 100%.

For the compound `C=C(CN(C(=O)c1c(C(F)F)nn(C)c1F)C1CC1)c1ccc(F)cc1F` [Compound 23], the pest or weed control at 100 µg/mL is 80 to 100%.

Regarding `CCS(=O)(=O)c1cccc(C(=C(Cl)Cl)C(C)N(C(=O)c2c(C(F)F)nn(C)c2F)C2CC2)c1` (stereo not drawn) [Compound 217], the pest or weed control at 100 µg/mL was 80 to 100%.

Turning to `C=C(c1ccc(Cl)cc1Cl)C(C)N(C(=O)c1c(C(F)F)nn(C)c1F)C1CC1` (stereo not drawn) [Compound 67], the pest or weed control at 100 µg/mL was in the range of 80 to 100%.

For the compound `C=C(c1cccc(S(C)(=O)=O)c1)C(C)N(C(=O)c1c(C(F)F)nn(C)c1F)C1CC1` (stereo not drawn) [Compound 104], the pest or weed control at 100 µg/mL was in the range of 80 to 100%.

In the case of `C=C(c1cccc(S(=O)(=O)CC)c1)C(C)N(C(=O)c1c(C(F)F)nn(C)c1F)C1CC1` (stereo not drawn) [Compound 108], the pest or weed control at 100 µg/mL lay in the range of 80 to 100%.

On to `C=C(c1cc(C)ccc1C(C)C)C(C)N(C(=O)c1c(C(F)F)nn(C)c1F)C1CC1` (stereo not drawn) [Compound 93], for which the pest or weed control at 100 µg/mL was in the range of 80 to 100%.

With `C=C(CN(C(=O)c1c(C(F)F)nn(C)c1F)C1CC1)c1ccccc1Br` [Compound 3], the pest or weed control at 100 µg/mL was in the range of 80 to 100%.

Regarding `C=C(c1cccc(F)c1)C(C)N(C(=O)c1c(C(F)F)nn(C)c1F)C1CC1` (stereo not drawn) [Compound 56], the pest or weed control at 100 µg/mL was in the range of 80 to 100%.

Turning to `C=C(c1ccccc1S(C)(=O)=O)C(C)N(C(=O)c1c(C(F)F)nn(C)c1F)C1CC1` (stereo not drawn) [Compound 105], the pest or weed control at 100 µg/mL was in the range of 80 to 100%.

In the case of `C=C(c1ccc(Cl)cc1)C(C)N(C(=O)c1c(C(F)F)nn(C)c1F)C1CC1` (stereo not drawn) [Compound 59], the pest or weed control at 100 µg/mL lay in the range of 80 to 100%.

`Cn1nc(C(F)F)c(C(=O)N(CC(=C(Cl)Cl)c2cc(Cl)ccc2F)C2CC2)c1F` [Compound 155]: the pest or weed control at 100 µg/mL was 80 to 100%.

On to `Cn1nc(C(F)F)c(C(=O)N(CC(=C(Cl)Cl)c2ccc(F)cc2F)C2CC2)c1F` [Compound 126], for which the pest or weed control at 100 µg/mL is 80 to 100%.

For `CC(C(=C(Cl)Cl)c1ccccc1Br)N(C(=O)c1c(C(F)F)nn(C)c1F)C1CC1` (stereo not drawn) [Compound 185], the pest or weed control at 100 µg/mL fell in the range of 80 to 100%.

As to `CC(C(=C(Cl)Cl)c1c(F)cc(F)cc1F)N(C(=O)c1c(C(F)F)nn(C)c1F)C1CC1` (stereo not drawn) [Compound 182], the pest or weed control at 100 µg/mL fell in the range of 80 to 100%.

With `CC(C(=C(Cl)Cl)c1ccc(C(F)(F)F)cc1Cl)N(C(=O)c1c(C(F)F)nn(C)c1F)C1CC1` (stereo not drawn) [Compound 211], the pest or weed control at 100 µg/mL was 80 to 100%.

Regarding `C=C(CN(C(=O)c1c(C(F)F)nn(C)c1F)C1CC1)c1ccccc1F` [Compound 20], the pest or weed control at 100 µg/mL lay in the range of 80 to 100%.

In a further assay the test system is Sphaerotheca fuliginea. Description: Sphaerotheca fuliginea potting method. The assay is classed as in vivo. The settings on record: Podosphaera fuliginea; 100 mg/L; read-out: Sphaerotheca fuliginea control rating. The procedure: The fungicidal activity of the control agents and target compounds are determined. The test and investigation method refers to SOP-SC-1101 sphaerotheca fuliginea potting method in disinfectant rolls written by KANGZHUO and GUBAOGEN in “Standard operation specification for testing biological activity of pesticides”.
With `Cn1nc(C(F)F)c(C(=O)N(CC(=C(Cl)Cl)c2ccc(Br)cc2Br)C2CC2)c1F` [Compound 134], the pest or weed control at 100 µg/mL was 80 to 100%.

In the case of `C=C(CN(C(=O)c1c(C(F)F)nn(C)c1F)C1CC1)c1ccc(F)cc1F` [Compound 23], the pest or weed control at 100 µg/mL was 80 to 100%.

In the case of `CCS(=O)(=O)c1cccc(C(=C(Cl)Cl)C(C)N(C(=O)c2c(C(F)F)nn(C)c2F)C2CC2)c1` (stereo not drawn) [Compound 217], the pest or weed control at 100 µg/mL was 80 to 100%.

`C=C(c1ccc(Cl)cc1Cl)C(C)N(C(=O)c1c(C(F)F)nn(C)c1F)C1CC1` (stereo not drawn) [Compound 67]: the pest or weed control at 100 µg/mL was 80 to 100%.

`C=C(c1cccc(S(C)(=O)=O)c1)C(C)N(C(=O)c1c(C(F)F)nn(C)c1F)C1CC1` (stereo not drawn) [Compound 104]: the pest or weed control at 100 µg/mL is 80 to 100%.

For `C=C(c1cccc(S(=O)(=O)CC)c1)C(C)N(C(=O)c1c(C(F)F)nn(C)c1F)C1CC1` (stereo not drawn) [Compound 108], the pest or weed control at 100 µg/mL was in the range of 80 to 100%.

`C=C(c1cc(C)ccc1C(C)C)C(C)N(C(=O)c1c(C(F)F)nn(C)c1F)C1CC1` (stereo not drawn) [Compound 93]: the pest or weed control at 100 µg/mL was 80 to 100%.

For the compound `C=C(CN(C(=O)c1c(C(F)F)nn(C)c1F)C1CC1)c1ccccc1Br` [Compound 3], the pest or weed control at 100 µg/mL lay within 80 to 100%.

As to `C=C(c1cccc(F)c1)C(C)N(C(=O)c1c(C(F)F)nn(C)c1F)C1CC1` (stereo not drawn) [Compound 56], the pest or weed control at 100 µg/mL is 80 to 100%.

In the case of `C=C(c1ccccc1S(C)(=O)=O)C(C)N(C(=O)c1c(C(F)F)nn(C)c1F)C1CC1` (stereo not drawn) [Compound 105], the pest or weed control at 100 µg/mL lay within 80 to 100%.

In the case of `C=C(c1ccc(Cl)cc1)C(C)N(C(=O)c1c(C(F)F)nn(C)c1F)C1CC1` (stereo not drawn) [Compound 59], the pest or weed control at 100 µg/mL was in the range of 80 to 100%.

On to `Cn1nc(C(F)F)c(C(=O)N(CC(=C(Cl)Cl)c2cc(Cl)ccc2F)C2CC2)c1F` [Compound 155], for which the pest or weed control at 100 µg/mL lay in the range of 80 to 100%.

For the compound `Cn1nc(C(F)F)c(C(=O)N(CC(=C(Cl)Cl)c2ccc(F)cc2F)C2CC2)c1F` [Compound 126], the pest or weed control at 100 µg/mL is 80 to 100%.

`CC(C(=C(Cl)Cl)c1ccccc1Br)N(C(=O)c1c(C(F)F)nn(C)c1F)C1CC1` (stereo not drawn) [Compound 185]: the pest or weed control at 100 µg/mL lay in the range of 80 to 100%.

As to `CC(C(=C(Cl)Cl)c1c(F)cc(F)cc1F)N(C(=O)c1c(C(F)F)nn(C)c1F)C1CC1` (stereo not drawn) [Compound 182], the pest or weed control at 100 µg/mL was in the range of 80 to 100%.

Turning to `CC(C(=C(Cl)Cl)c1ccc(C(F)(F)F)cc1Cl)N(C(=O)c1c(C(F)F)nn(C)c1F)C1CC1` (stereo not drawn) [Compound 211], the pest or weed control at 100 µg/mL was in the range of 80 to 100%.

On to `C=C(CN(C(=O)c1c(C(F)F)nn(C)c1F)C1CC1)c1ccccc1F` [Compound 20], for which the pest or weed control at 100 µg/mL was 80 to 100%.

These data come from US12540118B2, “Dendrene amide compound, bactericide and use thereof” (Jiangsu Flag Chemical Industry Co., Ltd., priority 2020, dated 2026).
